The test system of data set [1] is Huh-7 cell line (LTR-luc). Briefly: Cytotoxicity assay (LTR-luc luciferase reporter). The class given is cell-based, human. To be noted: in vitro. As for the experimental part: (§1) The anti-HCV activity and cytotoxicity of compounds disclosed herein were evaluated following patent method (WO/2007/027248).
(§2) The anti-HCV activity and toxicity of the exemplary compounds can be tested in two biological assays—a cell-based HCV replicon assay and cytotoxicity assay (WO 2007/027248).
(§3) II. Cytotoxicity Assay A Huh-7 cell line carrying a luciferase reporter gene (driven by a HIV LTR promoter) stably integrated into the chromosome was used to analyze the cytotoxic effect of the selected compounds. This cell line (LTR-luc) was maintained in DMEM medium with 10% FBS. Design of the cytotoxicity assay was similar to that of the HCV replicon assay. Reduction of luciferase activity in the treated cells correlated with the cytotoxic effect of the test compound and was used to calculate the CC50 value (concentration that inhibited cell growth by 50%).
For orientation: In a reporter assay the amount or activity of a reporter protein is the signal.

Data set [2] can be described thus: Cytotoxicity assay (LTR-luc luciferase reporter). It is filed as cell-based, human. To be noted: human; Huh-7 LTR-luc cells, luciferase activity; read-out: CC50 (concentration of drug inhibiting cellular growth by 50%). As for the experimental part: as §1, §2, §3
The subject of data set [3] is HCV subgenomic genotype 1b replicon. The experiment in a line: cell-based HCV replicon assay (luciferase reporter). To be noted: for EC50: Hepatitis C virus, Huh-7 cells, genotype 1b replicon luc-ubi-neo, 48 h incubation, luciferase activity, read-out: EC50 (concentration of drug inhibiting HCV by 50%); for anti-HCV activity (in words): replicon assay, genotype 1b. Further details: species or system hepatitis C virus (HCV). As for the experimental part:
as §1, §2
A human hepatoma cell line (Huh-7) containing replicating HCV subgenomic genotype 1b replicon with a luciferase reporter gene (luc-ubi-neo) was used to evaluate anti-HCV activity of the compounds. In this assay, the level of luciferase signal correlates with the viral RNA replication directly. The HCV replicon-reporter cell line (NK/luc-ubi-neo) was cultured in DMEM medium supplemented with 10% fetal bovine serum and 0.5 mg/ml Geneticin (G418). Cells were maintained in a subconfluent state to ensure high levels of HCV replicon RNA synthesis.
To evaluate the antiviral activity of compounds, serial dilutions were prepared with concentrations ranging from 0.14 to 300 μM. Diluted compounds were transferred to a 96-well plate followed by the addition of replicon cells (6000 cells per well). Cells were incubated with the compounds for 48 h after which luciferase activity was measured. Reduction of luciferase signal reflected the decrease of HCV replicon RNA in the treated cells and used to determine the EC50 value (concentration which yielded a 50% reduction in luciferase activity).
(In general: A replicon is a self-replicating genome or part of one, used to study replication in cells.)

`COc1nc(N)nc2c1ncn2C1OC(CO[P@@](=O)(N[C@@H](C)C(=O)OC2CCCC2)Oc2ccccc2)C[C@@]1(C)F` (some centres unmarked) [Compound 25]: in data set [1], the “cytotoxicity (in words)” value was “without significant cytotoxicity”. Further, in data set [2], the CC50 is over 100 µM. For the same compound, in data set [3], the EC50 worked out at 580 nM and the “anti-HCV activity (in words)” value is listed as “potent anti-HCV activity”.

Consider `COc1nc(N)nc2c1ncn2C1OC(CO)C[C@@]1(C)F` (some centres unmarked) [Compound 11], for which the CC50 in data set [2] is over 100 µM. Also, in data set [3], the EC50 was over 100000 nM.

With `COC(=O)[C@H](C)NP(=O)(OCC1C[C@@](C)(F)C(n2cnc3c(OC)nc(N)nc32)O1)Oc1ccccc1` (some centres unmarked) [Compound 18], in data set [1], the “cytotoxicity (in words)” value is “without significant cytotoxicity”. Besides, the CC50 in data set [2] is over 100 µM. Moreover, in data set [3], the EC50 is under 1000 nM and the “anti-HCV activity (in words)” value was “potent anti-HCV activity”.

Regarding `COc1nc(N)nc2c1ncn2C1OC(COP(=O)(NCc2ccccc2)OCc2ccccc2C)C[C@@]1(C)F` (some centres unmarked) [Compound 17], in data set [1], the “cytotoxicity (in words)” value is reported as “without significant cytotoxicity”. In addition, the CC50 in data set [2] came out at 52.2 µM. Further, in data set [3], the EC50 is under 1000 nM and the “anti-HCV activity (in words)” value is “potent anti-HCV activity”.

The values above are taken from patent publication US20140315850A1, “2',3'-Dideoxy-2'-alpha-Fluoro-2'-beta-C-Methylnucleosides and Prodrugs Thereof” (Nanjing Molecular Research, Inc., priority 2011, published 2014).
